{"source": "ChEMBL document CHEMBL3991601", "about": "“The target landscape of clinical kinase drugs” (Science, 2017)", "note": "The source made the active and inactive calls. Note: in the data inactive means no Kd found up to 30 µM.", "data": [{"molecular_target": "T1, Dual specificity mitogen-activated protein kinase kinase 4 (Homo sapiens, UniProt P45985)", "T1 sequence (P45985 whole entry)": "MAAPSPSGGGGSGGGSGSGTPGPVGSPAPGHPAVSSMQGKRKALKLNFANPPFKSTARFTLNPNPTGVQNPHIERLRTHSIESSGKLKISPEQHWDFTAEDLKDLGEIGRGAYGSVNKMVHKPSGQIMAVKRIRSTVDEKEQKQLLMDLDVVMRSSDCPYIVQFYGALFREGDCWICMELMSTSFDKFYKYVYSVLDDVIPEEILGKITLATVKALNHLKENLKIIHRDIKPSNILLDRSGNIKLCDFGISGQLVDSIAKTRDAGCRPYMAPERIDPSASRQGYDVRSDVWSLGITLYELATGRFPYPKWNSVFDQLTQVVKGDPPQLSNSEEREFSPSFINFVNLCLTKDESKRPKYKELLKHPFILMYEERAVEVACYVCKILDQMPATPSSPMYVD", "conditions": "not given", "values": [{"smiles": "Cc1cc(Nc2cc(N3CCN(C)CC3)nc(/C=C/c3ccccc3)n2)n[nH]1", "note": "[ENMD-2076]", "Kd": "> 30 µM (inactive)"}]}, {"molecular_target": "MAP kinase-activated protein kinase 3 (Homo sapiens, UniProt Q16644)", "sequence (Q16644 whole entry)": "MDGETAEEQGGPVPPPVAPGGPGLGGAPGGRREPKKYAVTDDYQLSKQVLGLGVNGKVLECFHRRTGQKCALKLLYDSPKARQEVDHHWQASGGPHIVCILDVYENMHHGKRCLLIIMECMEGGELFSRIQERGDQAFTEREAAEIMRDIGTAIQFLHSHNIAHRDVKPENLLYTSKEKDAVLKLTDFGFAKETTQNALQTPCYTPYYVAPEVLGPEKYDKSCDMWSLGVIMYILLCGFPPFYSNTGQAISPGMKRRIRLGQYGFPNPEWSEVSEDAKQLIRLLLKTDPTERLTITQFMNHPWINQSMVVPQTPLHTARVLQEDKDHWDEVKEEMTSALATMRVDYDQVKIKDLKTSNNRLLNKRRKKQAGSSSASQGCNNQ", "conditions": "not given", "values": [{"smiles": "CCS(=O)(=O)N1CC(CC#N)(n2cc(-c3ncnc4[nH]ccc34)cn2)C1", "note": "[BARICITINIB]", "Kd": "> 30 µM (inactive)"}]}, {"molecular_target": "5'-AMP-activated protein kinase subunit gamma-1 (Homo sapiens, UniProt P54619)", "sequence (P54619 whole entry)": "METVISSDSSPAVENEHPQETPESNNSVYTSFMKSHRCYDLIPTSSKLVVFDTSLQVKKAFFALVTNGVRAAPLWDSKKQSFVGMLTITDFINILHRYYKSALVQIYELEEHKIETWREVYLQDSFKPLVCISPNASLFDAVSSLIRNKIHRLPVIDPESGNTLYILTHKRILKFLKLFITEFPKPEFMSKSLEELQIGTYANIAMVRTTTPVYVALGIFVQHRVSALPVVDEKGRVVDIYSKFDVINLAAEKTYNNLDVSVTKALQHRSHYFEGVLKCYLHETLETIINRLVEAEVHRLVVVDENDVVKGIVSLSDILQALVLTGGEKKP", "conditions": "not given", "values": [{"smiles": "CNC(=O)c1cc(Oc2ccc(NC(=O)Nc3ccc(Cl)c(C(F)(F)F)c3)c(F)c2)ccn1", "note": "[REGORAFENIB]", "Kd": "> 30 µM (inactive)"}]}, {"molecular_target": "T2, General transcription and DNA repair factor IIH helicase subunit XPD (Homo sapiens, UniProt P18074)", "T2 sequence (P18074 whole entry)": "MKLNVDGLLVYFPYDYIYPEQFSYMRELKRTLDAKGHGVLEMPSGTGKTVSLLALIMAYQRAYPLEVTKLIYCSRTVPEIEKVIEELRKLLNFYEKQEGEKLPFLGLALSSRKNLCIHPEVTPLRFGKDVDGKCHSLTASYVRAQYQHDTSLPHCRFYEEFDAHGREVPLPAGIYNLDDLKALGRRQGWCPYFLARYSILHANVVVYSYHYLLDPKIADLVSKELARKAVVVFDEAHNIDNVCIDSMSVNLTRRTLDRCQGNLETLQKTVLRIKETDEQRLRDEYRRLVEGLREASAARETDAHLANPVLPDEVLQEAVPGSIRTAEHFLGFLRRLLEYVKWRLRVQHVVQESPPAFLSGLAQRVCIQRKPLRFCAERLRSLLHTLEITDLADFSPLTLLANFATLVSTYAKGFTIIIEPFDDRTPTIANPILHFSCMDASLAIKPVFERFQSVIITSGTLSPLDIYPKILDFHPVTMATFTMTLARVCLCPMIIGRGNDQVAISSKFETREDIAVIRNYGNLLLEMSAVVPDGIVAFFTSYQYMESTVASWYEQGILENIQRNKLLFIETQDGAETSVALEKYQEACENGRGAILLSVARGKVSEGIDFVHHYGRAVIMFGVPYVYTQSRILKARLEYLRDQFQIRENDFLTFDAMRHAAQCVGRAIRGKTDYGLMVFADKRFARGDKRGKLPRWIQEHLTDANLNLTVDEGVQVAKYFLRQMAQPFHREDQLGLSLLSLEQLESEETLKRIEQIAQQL", "conditions": "not given", "values": [{"smiles": "CNC(=O)c1cc(Oc2ccc(NC(=O)Nc3ccc(Cl)c(C(F)(F)F)c3)c(F)c2)ccn1", "note": "[REGORAFENIB]", "Kd": "> 30 µM (inactive)"}]}, {"molecular_target": "Cyclin-dependent kinase 10 (Homo sapiens, UniProt Q15131)", "sequence (Q15131 whole entry)": "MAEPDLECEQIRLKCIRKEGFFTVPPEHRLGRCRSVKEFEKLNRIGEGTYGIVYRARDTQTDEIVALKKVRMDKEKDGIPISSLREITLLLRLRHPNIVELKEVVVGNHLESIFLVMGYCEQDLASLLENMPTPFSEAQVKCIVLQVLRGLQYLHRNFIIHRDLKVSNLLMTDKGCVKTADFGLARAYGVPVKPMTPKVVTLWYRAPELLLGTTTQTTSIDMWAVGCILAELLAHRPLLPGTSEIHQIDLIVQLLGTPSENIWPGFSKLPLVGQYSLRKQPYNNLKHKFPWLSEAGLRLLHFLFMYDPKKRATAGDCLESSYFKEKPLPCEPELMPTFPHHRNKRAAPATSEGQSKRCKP", "conditions": "not given", "values": [{"smiles": "Cc1cc(Nc2cc(N3CCN(C)CC3)nc(/C=C/c3ccccc3)n2)n[nH]1", "note": "[ENMD-2076]", "Kd": "> 30 µM (inactive)"}, {"smiles": "CNC(=O)c1cc(Oc2ccc(NC(=O)Nc3ccc(Cl)c(C(F)(F)F)c3)c(F)c2)ccn1", "note": "[REGORAFENIB]", "Kd": "> 30 µM (inactive)"}]}, {"molecular_target": "Tyrosine-protein kinase Fgr (Homo sapiens, UniProt P09769)", "sequence (P09769 whole entry)": "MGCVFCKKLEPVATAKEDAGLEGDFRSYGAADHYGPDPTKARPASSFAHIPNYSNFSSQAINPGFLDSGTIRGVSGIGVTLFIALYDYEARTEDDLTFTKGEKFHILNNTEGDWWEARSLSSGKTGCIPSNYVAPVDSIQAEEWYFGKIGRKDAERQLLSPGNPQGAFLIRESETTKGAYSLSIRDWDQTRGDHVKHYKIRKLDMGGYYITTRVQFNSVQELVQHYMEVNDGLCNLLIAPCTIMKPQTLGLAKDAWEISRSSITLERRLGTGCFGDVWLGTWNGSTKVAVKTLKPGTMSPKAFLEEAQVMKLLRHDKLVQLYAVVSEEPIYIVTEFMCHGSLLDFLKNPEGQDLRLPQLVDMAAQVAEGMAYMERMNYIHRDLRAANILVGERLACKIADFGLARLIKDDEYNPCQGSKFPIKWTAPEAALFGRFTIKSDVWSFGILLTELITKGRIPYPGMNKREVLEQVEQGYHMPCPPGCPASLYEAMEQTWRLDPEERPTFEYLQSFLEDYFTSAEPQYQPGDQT", "conditions": "not given", "values": [{"smiles": "CNC(=O)c1cc(Oc2ccc(NC(=O)Nc3ccc(Cl)c(C(F)(F)F)c3)c(F)c2)ccn1", "note": "[REGORAFENIB]", "Kd": "> 30 µM (inactive)"}]}, {"molecular_target": "Serine/threonine-protein kinase 38 (Homo sapiens, UniProt Q15208)", "sequence (Q15208 whole entry)": "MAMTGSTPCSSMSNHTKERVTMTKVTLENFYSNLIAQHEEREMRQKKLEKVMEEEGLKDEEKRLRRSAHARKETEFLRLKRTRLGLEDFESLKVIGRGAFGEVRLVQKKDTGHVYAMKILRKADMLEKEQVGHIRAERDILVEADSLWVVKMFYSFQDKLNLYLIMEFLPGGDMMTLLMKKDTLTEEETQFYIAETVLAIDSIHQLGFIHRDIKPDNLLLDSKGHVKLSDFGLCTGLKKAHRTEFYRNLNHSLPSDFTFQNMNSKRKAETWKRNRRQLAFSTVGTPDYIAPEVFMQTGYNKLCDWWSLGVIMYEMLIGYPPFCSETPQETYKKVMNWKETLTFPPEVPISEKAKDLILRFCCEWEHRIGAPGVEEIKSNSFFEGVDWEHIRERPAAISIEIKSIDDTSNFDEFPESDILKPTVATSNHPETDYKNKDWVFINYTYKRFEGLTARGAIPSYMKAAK", "conditions": "not given", "values": [{"smiles": "COc1cc(CCc2cc(NC(=O)c3ccc(N4C[C@@H](C)N[C@@H](C)C4)cc3)n[nH]2)cc(OC)c1", "note": "[AZD-4547]", "Kd": "> 30 µM (inactive)"}, {"smiles": "CNC(=O)c1ccc(-c2cnc3ncc(Cc4ccc5ncccc5c4)n3n2)cc1F", "note": "[CAPMATINIB]", "Kd": "> 30 µM (inactive)"}, {"smiles": "Cc1cc(Nc2cc(N3CCN(C)CC3)nc(/C=C/c3ccccc3)n2)n[nH]1", "note": "[ENMD-2076]", "Kd": "> 30 µM (inactive)"}, {"smiles": "C=CC(=O)N1CCC(Oc2cc3c(Nc4ccc(Cl)c(Cl)c4F)ncnc3cc2OC)CC1", "note": "[POZIOTINIB]", "Kd": "> 30 µM (inactive)"}]}, {"molecular_target": "Eukaryotic peptide chain release factor GTP-binding subunit ERF3B (Homo sapiens, UniProt Q8IYD1)", "sequence (Q8IYD1 whole entry)": "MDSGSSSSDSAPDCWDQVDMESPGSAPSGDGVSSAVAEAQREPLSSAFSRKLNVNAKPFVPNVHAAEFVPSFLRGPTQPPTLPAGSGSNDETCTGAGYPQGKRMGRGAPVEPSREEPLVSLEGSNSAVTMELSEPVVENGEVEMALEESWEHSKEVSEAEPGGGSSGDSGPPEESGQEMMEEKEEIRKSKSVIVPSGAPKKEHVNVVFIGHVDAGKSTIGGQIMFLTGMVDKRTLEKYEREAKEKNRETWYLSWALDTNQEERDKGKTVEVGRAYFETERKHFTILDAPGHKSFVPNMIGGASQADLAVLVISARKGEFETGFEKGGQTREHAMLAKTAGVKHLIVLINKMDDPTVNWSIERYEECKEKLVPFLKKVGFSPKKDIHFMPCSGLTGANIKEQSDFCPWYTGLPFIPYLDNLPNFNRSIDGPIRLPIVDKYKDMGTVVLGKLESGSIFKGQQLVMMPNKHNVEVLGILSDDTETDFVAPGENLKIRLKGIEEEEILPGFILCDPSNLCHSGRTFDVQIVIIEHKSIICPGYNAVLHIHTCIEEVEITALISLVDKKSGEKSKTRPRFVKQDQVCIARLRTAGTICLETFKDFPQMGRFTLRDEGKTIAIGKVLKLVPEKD", "conditions": "not given", "values": [{"smiles": "CCS(=O)(=O)N1CC(CC#N)(n2cc(-c3ncnc4[nH]ccc34)cn2)C1", "note": "[BARICITINIB]", "Kd": "> 30 µM (inactive)"}, {"smiles": "CNC(=O)c1ccc(-c2cnc3ncc(Cc4ccc5ncccc5c4)n3n2)cc1F", "note": "[CAPMATINIB]", "Kd": "> 30 µM (inactive)"}]}, {"molecular_target": "ALK tyrosine kinase receptor (Homo sapiens, UniProt Q9UM73)", "sequence (Q9UM73 whole entry)": "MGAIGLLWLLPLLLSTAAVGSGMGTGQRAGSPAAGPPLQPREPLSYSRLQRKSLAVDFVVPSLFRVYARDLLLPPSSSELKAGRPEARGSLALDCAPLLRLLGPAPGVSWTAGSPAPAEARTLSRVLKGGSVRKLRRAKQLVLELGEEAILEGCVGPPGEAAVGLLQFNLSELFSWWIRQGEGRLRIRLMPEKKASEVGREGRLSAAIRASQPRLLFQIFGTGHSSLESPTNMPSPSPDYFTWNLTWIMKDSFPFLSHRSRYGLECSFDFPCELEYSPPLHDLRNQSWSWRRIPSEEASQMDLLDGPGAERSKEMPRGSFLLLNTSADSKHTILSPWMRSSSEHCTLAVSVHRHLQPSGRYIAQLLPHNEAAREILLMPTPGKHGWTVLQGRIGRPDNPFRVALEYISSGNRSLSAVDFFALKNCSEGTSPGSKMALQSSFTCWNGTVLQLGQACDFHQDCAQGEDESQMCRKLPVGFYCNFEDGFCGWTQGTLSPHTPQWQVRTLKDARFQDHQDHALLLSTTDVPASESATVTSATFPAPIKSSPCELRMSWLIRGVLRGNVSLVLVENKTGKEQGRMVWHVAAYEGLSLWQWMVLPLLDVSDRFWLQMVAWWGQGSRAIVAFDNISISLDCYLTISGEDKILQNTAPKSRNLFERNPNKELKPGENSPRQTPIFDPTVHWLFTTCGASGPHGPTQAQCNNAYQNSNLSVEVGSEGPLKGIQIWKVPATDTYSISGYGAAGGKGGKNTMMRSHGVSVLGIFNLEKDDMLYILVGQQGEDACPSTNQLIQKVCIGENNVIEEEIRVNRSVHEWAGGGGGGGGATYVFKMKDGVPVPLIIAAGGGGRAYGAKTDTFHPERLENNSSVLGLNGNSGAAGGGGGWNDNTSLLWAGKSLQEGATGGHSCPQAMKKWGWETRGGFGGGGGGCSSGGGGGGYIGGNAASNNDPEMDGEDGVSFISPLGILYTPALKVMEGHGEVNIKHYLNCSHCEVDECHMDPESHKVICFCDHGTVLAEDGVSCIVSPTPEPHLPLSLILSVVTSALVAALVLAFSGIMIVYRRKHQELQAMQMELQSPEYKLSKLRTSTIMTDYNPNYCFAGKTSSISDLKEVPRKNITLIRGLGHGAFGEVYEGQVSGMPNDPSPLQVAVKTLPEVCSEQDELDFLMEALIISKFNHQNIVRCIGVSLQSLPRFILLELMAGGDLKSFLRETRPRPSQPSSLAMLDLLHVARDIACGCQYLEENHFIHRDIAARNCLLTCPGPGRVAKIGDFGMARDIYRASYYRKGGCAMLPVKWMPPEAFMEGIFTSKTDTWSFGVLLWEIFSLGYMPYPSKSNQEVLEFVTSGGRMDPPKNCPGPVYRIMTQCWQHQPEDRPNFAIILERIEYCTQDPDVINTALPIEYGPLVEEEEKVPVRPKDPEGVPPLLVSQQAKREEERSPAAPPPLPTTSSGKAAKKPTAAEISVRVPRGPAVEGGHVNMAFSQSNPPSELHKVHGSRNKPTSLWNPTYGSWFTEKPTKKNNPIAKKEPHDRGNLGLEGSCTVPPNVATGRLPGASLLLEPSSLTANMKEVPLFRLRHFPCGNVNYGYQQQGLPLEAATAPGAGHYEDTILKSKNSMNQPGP", "format": "subcellular, K-562, COLO 205, SK-N-BE(2) and MV-4-11, Cell lysate", "conditions": "read-out: Kd apparent", "values": [{"smiles": "COc1cc(CCc2cc(NC(=O)c3ccc(N4C[C@@H](C)N[C@@H](C)C4)cc3)n[nH]2)cc(OC)c1", "note": "[AZD-4547]", "Kd": "> 30 µM (inactive)"}]}, {"molecular_target": "Activin receptor type-1-like (Homo sapiens, UniProt P37023)", "sequence (P37023 whole entry)": "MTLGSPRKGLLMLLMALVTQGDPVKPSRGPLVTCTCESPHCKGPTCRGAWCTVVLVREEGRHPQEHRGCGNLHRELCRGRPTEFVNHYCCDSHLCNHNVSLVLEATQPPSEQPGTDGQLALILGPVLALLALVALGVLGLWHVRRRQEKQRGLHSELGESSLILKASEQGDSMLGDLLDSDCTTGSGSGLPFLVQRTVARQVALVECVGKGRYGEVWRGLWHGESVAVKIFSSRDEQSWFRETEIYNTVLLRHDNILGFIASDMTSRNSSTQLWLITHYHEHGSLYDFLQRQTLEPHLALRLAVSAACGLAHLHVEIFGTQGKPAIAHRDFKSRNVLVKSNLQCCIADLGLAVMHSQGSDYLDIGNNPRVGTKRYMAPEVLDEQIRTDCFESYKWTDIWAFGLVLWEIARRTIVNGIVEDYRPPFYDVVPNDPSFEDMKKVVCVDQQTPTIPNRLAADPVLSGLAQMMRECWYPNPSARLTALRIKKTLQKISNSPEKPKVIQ", "conditions": "not given", "values": [{"smiles": "COc1cc(CCc2cc(NC(=O)c3ccc(N4C[C@@H](C)N[C@@H](C)C4)cc3)n[nH]2)cc(OC)c1", "note": "[AZD-4547]", "Kd": "> 30 µM (inactive)"}, {"smiles": "CCS(=O)(=O)N1CC(CC#N)(n2cc(-c3ncnc4[nH]ccc34)cn2)C1", "note": "[BARICITINIB]", "Kd": "> 30 µM (inactive)"}, {"smiles": "CNC(=O)c1ccc(-c2cnc3ncc(Cc4ccc5ncccc5c4)n3n2)cc1F", "note": "[CAPMATINIB]", "Kd": "> 30 µM (inactive)"}, {"smiles": "Cc1cc(Nc2cc(N3CCN(C)CC3)nc(/C=C/c3ccccc3)n2)n[nH]1", "note": "[ENMD-2076]", "Kd": "> 30 µM (inactive)"}]}, {"molecular_target": "Ras-related C3 botulinum toxin substrate 1 (Homo sapiens, UniProt P63000)", "conditions": "not given", "values": [{"smiles": "CN1CC[C@@H](c2c(O)cc(O)c3c(=O)cc(-c4ccccc4Cl)oc23)[C@@H]1CO", "Kd": "> 30 µM (inactive)"}, {"smiles": "Cc1cn(-c2cc(NC(=O)c3ccc(C)c(Nc4nccc(-c5cccnc5)n4)c3)cc(C(F)(F)F)c2)cn1", "note": "[NILOTINIB]", "Kd": "> 30 µM (inactive)"}, {"smiles": "C=CC(=O)N1CCC(Oc2cc3c(Nc4ccc(Cl)c(Cl)c4F)ncnc3cc2OC)CC1", "note": "[POZIOTINIB]", "Kd": "> 30 µM (inactive)"}]}, {"molecular_target": "T3, Tyrosine-protein kinase Mer (Homo sapiens, UniProt Q12866)", "T3 sequence (Q12866 whole entry)": "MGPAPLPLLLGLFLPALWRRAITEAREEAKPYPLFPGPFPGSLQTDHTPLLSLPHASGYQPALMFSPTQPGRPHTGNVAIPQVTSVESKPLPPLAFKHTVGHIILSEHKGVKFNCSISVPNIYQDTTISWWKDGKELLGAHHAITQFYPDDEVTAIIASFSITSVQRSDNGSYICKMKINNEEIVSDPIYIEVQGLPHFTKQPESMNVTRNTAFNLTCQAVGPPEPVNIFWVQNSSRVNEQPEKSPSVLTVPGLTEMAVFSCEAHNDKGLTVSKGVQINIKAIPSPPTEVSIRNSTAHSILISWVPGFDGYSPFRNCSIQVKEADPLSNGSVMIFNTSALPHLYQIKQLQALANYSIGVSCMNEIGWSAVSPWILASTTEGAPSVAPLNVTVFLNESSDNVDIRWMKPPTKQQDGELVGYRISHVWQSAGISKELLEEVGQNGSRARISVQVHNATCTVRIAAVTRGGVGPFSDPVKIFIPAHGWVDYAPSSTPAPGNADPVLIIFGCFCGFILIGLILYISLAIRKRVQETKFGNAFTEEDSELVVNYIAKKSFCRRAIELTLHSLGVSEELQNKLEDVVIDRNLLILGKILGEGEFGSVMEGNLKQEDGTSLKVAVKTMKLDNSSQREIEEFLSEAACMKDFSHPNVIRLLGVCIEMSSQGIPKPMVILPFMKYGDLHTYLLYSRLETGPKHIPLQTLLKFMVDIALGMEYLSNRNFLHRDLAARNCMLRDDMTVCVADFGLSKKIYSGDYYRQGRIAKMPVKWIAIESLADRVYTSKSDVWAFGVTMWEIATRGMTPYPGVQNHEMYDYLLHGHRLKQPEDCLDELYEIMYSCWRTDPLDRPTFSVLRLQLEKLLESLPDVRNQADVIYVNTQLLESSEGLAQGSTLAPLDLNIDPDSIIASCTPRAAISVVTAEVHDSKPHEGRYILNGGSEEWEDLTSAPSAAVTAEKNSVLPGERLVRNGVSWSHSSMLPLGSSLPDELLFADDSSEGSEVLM", "conditions": "not given", "values": [{"smiles": "CN1CC[C@@H](c2c(O)cc(O)c3c(=O)cc(-c4ccccc4Cl)oc23)[C@@H]1CO", "Kd": "> 30 µM (inactive)"}, {"smiles": "COc1cc(CCc2cc(NC(=O)c3ccc(N4C[C@@H](C)N[C@@H](C)C4)cc3)n[nH]2)cc(OC)c1", "note": "[AZD-4547]", "Kd": "> 30 µM (inactive)"}, {"smiles": "CNC(=O)c1ccc(-c2cnc3ncc(Cc4ccc5ncccc5c4)n3n2)cc1F", "note": "[CAPMATINIB]", "Kd": "> 30 µM (inactive)"}]}]}
